The source of these data is patent US20240218084A1, “METHOD FOR PURIFYING FOMES OFFICINALIS POLYSACCHARIDE BY SEQUENTIAL SIMULATED MOVING CHROMATOGRAPHY” (HEILONGJIANG BAYI AGRICULTURAL UNIVERSITY, priority 2022, published 2024).

For the assay, the system named is Macrophage RAW264.7. Put plainly: NO production by macrophage RAW264.7 stimulated with polysaccharide (Griess reagent). The assay is classed as cell-based. As to conditions: RAW264.7 cells, positive control 1 μg/mL lipopolysaccharide (LPS), 24 h incubation, supernatant, 540 nm. The method, then:
Macrophage RAW264.7 is stimulated using Fomes officinalis polysaccharides prepared in Embodiments 1-3, and the concentrations of NO produced therefrom are determined, and the results are shown in Table 1. Specific experimental methods: 100 microliters (L) of RAW264.7 cells (1×10^6 cells/mL) are added to 96 microtiter plates and pre-cultured in a 37° C. 5% CO2 incubator for 24 hours (h). The supernatant is discarded, and 200 μL of 5 micrograms per milliliter (μg/mL) polysaccharide solution is added to the cells, the culture solution is used as a negative control, and 1 μg/mL lipopolysaccharide (LPS) is used as a positive control, then the cells are incubated for 24 h. To determine the NO level in the supernatant, 100 μL of supernatant is added with 100 μL of Griess reagent, and the absorbance is measured at 540 nm after 10 min of reaction at room temperature and protected from light using an enzyme labeler (Biotek instruments, Winooski, VT, USA), and the NO yield is calculated by substituting the absorbance value of the samples into the standard curve, using sodium nitrite as the standard.
A general note: The Griess reaction detects nitrite, a stable product of nitric oxide.

In the case of “lipopolysaccharide [Positive control group]”, the NO yield was 41.06 µmol/L.
